Laboratory results reported in US20260083677A1, “ACTIVE INGREDIENT CONTAINING STABILISED SOLID MEDICINAL FORMS AND METHODS FOR THE PRODUCTION THEREOF” (ASTELLAS PHARMA INC., priority 2006, published 2026).

How the values were obtained:
Format in all cases: physicochemical
[1] = drying loss determination on a drying balance; conditions: for drying loss at 130° C./30 min: substances dried at 130° C. for 5 hours (sorbitol: 70° C.)
Procedure: drying loss in %=mass of the water in the sample/total mass of the sample×100
In order to determine the drying loss of a sample (e.g. a solid medicinal form), the sample is spread over a so-called drying balance and (e.g. by an accurately working infrared radiator) adjusted to the desired temperature, e.g. of 105° C. After a certain time (e.g. after 20 or 30 minutes), the drying loss due to the evaporation of water is directly read off the balance in percent. Unless otherwise specified in this application, the expression “drying loss” refers to the drying loss determined under the conditions of 105° C./30 min. A suitable device for measuring of the drying loss is the Moisture Analyzer HR83 of Mettler-Toledo company (CH-8606 Greifensee, Switzerland). The device or the drying balance is preferably used in a closed interior having an ambient temperature of 20° C. and 20% relative humidity.

[2] = relative equilibrium moisture content in sealed measuring cell (HygroLab, AWVC cell); conditions: for equilibrium moisture: substances dried at 130° C. for 5 hours (sorbitol: 70° C.)
Procedure: In connection with the present invention it is, however, very important to have a method furnishing information on the bonding mechanism of water and the strength of the water bond. For this purpose, the so-called “relative equilibrium moisture content” (hereinafter also abbreviated as “equilibrium moisture content”) is measured which forms on the sample in a fully sealed measuring cell at a certain temperature. It is also referred to as equilibrium activity or water activity. The water activity describes the bond strength of water to the active ingredient and/or the individual components of the active ingredient mixture. The measured value for the water activity and/or for the equilibrium moisture (Equilibrium Relative Humidity) has a decisive influence on the chemical stability of a moisture-sensitive active ingredient which is embedded in a solid form, such as granules, a capsule or tablet.
The equilibrium moisture content is the value of the relative humidity in which a hygroscopic product can be stored without a net moisture exchange taking place between the product and its environment. Thus, if a solid form has an equilibrium moisture content of 10% and is stored at a relative humidity of 15%, it absorbs water from its environment, if the relative moisture of the environment is below 10%, the solid form releases water to its environment and becomes even drier.
Unless otherwise specified, the equilibrium moisture content is determined as follows in a thermostated small, tightly sealed measuring cell having a volume of about 50 ml. In the upper part of this measuring cell there is a sensor which can measure the relative moisture content resulting from the evaporation of water from the sample to be measured (the device HygroLab having the AWVC measuring cell of Rotronic company, CH 8303 Bassersdorf, Switzerland, is used) The device is officially calibrated and the measuring inaccuracy is no more than +1% relative humidity or +0.3° C. The measuring accuracy can be repeated at any time with standardized salt solutions as known to the person skilled in the art. The measurement takes place at 25° C.

[3] = removal of water of crystallization from amoxicilline trihydrate by a drying agent in a tightly sealing glass vessel
Procedure: In a tightly sealing glass vessel, two Arcellas having 3.5 g trimagnesium dicitrate, dried at 130° C., or having 1.264 g amoxicilline trihydrate (water content 13.1%) are placed side by side and stored at 25° C. After 14 days, the weight of amoxicilline is only 1,105 g whereas the weight of trimagnesium dicitrate is 3.66 g. The amoxicilline released 12.6% water of crystallization which was absorbed by the drying agent. The new drying agent is active such that it virtually split off the entire water of crystallization of amoxicilline (theoretical value: 12.9%).
If this experiment is repeated with the known drying agent silica gel, the antibiotic only loses 0.1% weight after 25 days. This means that the dried trimagnesium dicitrate according to the invention represents an extremely potent drying agent.
Under precisely equal test conditions, the amoxicilline only loses 9.0% with calcium chloride dried at 130° C. after 26 days/25° C.

[4] = weight increase on storage at 25° C./15% relative humidity over 27 days; conditions: substances dried at 130° C. for 5 hours (sorbitol: 70° C.)
Procedure: The substances were dried at 130° C. for 5 hours (sorbitol: 70° C.) and the drying loss was determined. Then, the weight increase of the individual substances was determined at 25° C./15% relative humidity over 27 days.

[5] = measuring cell thermostated to 25° C.
[6] = measured at 150° C./30 min, after drying at 130° C. for several hours
[7] = after drying at 130° C. for several hours

| SMILES | equilibrium moisture content [2, 5] [%] | drying loss [1, 6] [%] | drying loss at 130° C./30 min [1] | equilibrium moisture content [2, 7] [%] | equilibrium moisture [2] [%] | weight increase (%) with storage at 15% relative humidity/25° C. [4] [%] | also measured |
| --- | --- | --- | --- | --- | --- | --- | --- |
| O=S(=O)([O-])[O-].[Na+].[Na+] [Sodium sulfate, reference compound] | 32.7 |  |  |  |  |  | drying loss at 130° C. ([1]; testing period 30 min): 0.06% |
| CC1(C)S[C@@H]2[C@H](NC(=O)[C@H](N)c3ccc(O)cc3)C(=O)N2[C@H]1C(=O)O [amoxicilline, amoxicilline trihydrate] |  |  |  |  |  |  | weight of amoxicilline after storage ([3]; 1.264 g at start, beside 3.5 g dried trimagnesium dicitrate, 14 days, 25° C.): 1,105 g; weight loss ([3]; drying agent calcium chloride dried at 130° C., after 26 days/25° C.): 9.0%; weight loss ([3]; drying agent silica gel, after 25 days): 0.1%; water of crystallization released ([3]; drying agent trimagnesium dicitrate dried at 130° C., 14 days, 25° C.): 12.6% |
| [Ca+2].[Cl-].[Cl-] [calcium chloride] |  | 3.4 | 0.02 | < 0.5 | < 1 | 45.9 |  |
| O=C(O)CC(O)(CC(=O)O)C(=O)O [citric acid] | 63 |  |  |  |  |  | drying loss ([1]; measured at 70° C./30 min): 0.2% |
| OC[C@@H](O)[C@@H](O)[C@H](O)[C@@H](O)CO [sorbitol] |  |  | 0.1 |  | 9 | 0.1 |  |
| O=C([O-])CC(O)(CC(=O)[O-])C(=O)[O-].O=C([O-])CC(O)(CC(=O)[O-])C(=O)[O-].[Mg+2].[Mg+2].[Mg+2] [trimagnesium dicitrate] |  | 1.6 | 0.2 | < 0.5 | < 1 | 8.6 | equilibrium moisture content ([2]; after drying at 130° C. for several hours, at 25° C.): 0.6%; weight of trimagnesium dicitrate after storage ([3]; 3.5 g at start, dried at 130° C., beside amoxicilline trihydrate, 14 days, 25° C.): 3.66 g |
